Counter-ions that a name gives are not always drawn.
Tested on: WI26-VA4 cells
Test: Doxorubicin cytotoxicity by MTT cell viability assay, liposomes with or without pre-illumination
Assay type: cell-based
Details: total dose of 1 μM; co-incubated with cells for 4 hours; evaluated 48 hours after treatment; no illumination
Method: Studies were performed on the fluorescent marker- or drug-loaded liposomes described above diluted to a concentration of 0.2 mM by total lipids with or without the photosensitizer-peptide conjugate described above at 1:80 to 1:5 molar ratio to total lipids. Optionally, samples were also supplied with antioxidants/reducing agents or other additional substances at different concentrations. Samples were either illuminated as described below or kept for the same time period under different control conditions.
Illumination of prepared liposomes with or without photosensitizer-peptide conjugate was mostly preformed using a setup that included a halogen utility lamp, a 2-inch thick flowing water filter to cut infrared irradiation above 950 nm and a red optical cast plastic filter (EdmundOptics) to cut off light irradiation below 620 nm (FIG. 1). […]
Release of the drug substance (doxorubicin hydrochloride) from the liposomes was done by enhancement of its biological action (cytotoxicity) on cultured WI26-VA4 cells after pre-illuminating liposomes with or without photosensitizer-peptide conjugate in comparison to liposomes at the same dose without pre-illumination, co-incubated with cells for 4 hours. The extent of cell death was evaluated 48 hours after treatment using a MTT cell viability assay.

`COc1cccc2c1C(=O)c1c(O)c3c(c(O)c1C2=O)C[C@@](O)(C(=O)CO)C[C@@H]3O[C@H]1C[C@H](N)[C@H](O)[C@H](C)O1` [doxorubicin hydrochloride] was tested, and the cell death was “about 60%”.

From patent US11154619B2, “Liposomal compositions with light illumination-induced drug release” (Creighton University, priority 2017, dated 2021)
